Reference: US9216968B2, “Heterocyclic derivative and pharmaceutical drug” (NIPPON SHINYAKU CO., LTD., priority 2011, dated 2015)
Counter-ions that a name gives are not always drawn.

target: human mPGES-1 (Homo sapiens (Human), UniProt O14684); assay: mPGES-1 inhibiting activity (microsome fractions, PGE2 by HTRF); assay type: biochemical; settings: microsomes from CHO-K1 cells transfected with human mPGES-1; PGH2 1 μM, 4° C., 60 seconds; read-out: mPGES-1 Inhibition IC50
Experimental: mPGES-1 microsome fractions were prepared from CHO-K1 cells transiently transfected with plasmid encoding the human mPGES-1cDNA. Microsomes were diluted with potassium phosphate buffer containing reduced glutathione (pH7.4), and DMSO containing test compound or DMSO alone was added (such that DMSO final concentration would be 1% in each) and incubated at 4° C. for 20 minutes. Then, the enzymatic reactions were initiated by the addition of PGH2 substrate (final concentration 1 μM) and incubated at 4° C. for 60 seconds. The reaction was terminated by the addition of a citrate solution (final citrate concentration 50 mM) containing ferric chloride (final concentration 1 mg/mL). PGE2 production in the enzyme reaction aliquot was measured using HTRF kit (Cisbio International, catalogue #62P2APEC). The solution free of test compound was used as positive control, and the solution free of test compound and microsome sample was used as negative control. 100% activity was defined as PGE2 production in the positive control minus PGE2 production in negative control. IC50 value was calculated by standard method.

human mPGES-1, sequence (O14684 whole entry): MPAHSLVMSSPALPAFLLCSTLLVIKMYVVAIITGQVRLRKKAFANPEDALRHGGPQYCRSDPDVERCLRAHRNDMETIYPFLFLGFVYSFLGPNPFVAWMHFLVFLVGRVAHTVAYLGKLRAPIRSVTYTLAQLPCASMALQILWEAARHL

IC50 [nM] | Structure (SMILES)
453 | O=C(Nc1cc(C(=O)NCC2(O)CCCCC2)c2nc[nH]c2c1)c1ccccc1C(F)(F)F [Example 5, N-[(1-Hydroxycyclohexyl)methyl]-6-({[2-(trifluoromethyl)phenyl]carbonyl}amino)-1H-benzimidazole-4-carboxamide]
27.4 | O=C(Nc1cc2c(c(C(=O)NCc3ccccc3C(F)(F)F)c1)OCC2)c1ccccc1C(F)(F)F [Example 6, N-[2-(Trifluoromethyl)benzyl]-5-({[2-(trifluoromethyl)phenyl]carbonyl}amino)-2,3-dihydro-1-benzofuran-7-carboxamide]
452 | O=C(Nc1cc(C(=O)NC2CCCCC2)c2[nH]ncc2c1)c1ccccc1C(F)(F)F [Example 9, N-Cyclohexyl-5-({[2-(trifluoromethyl)phenyl]carbonyl}amino)-1H-indazole-7-carboxamide]
333 | O=C(Nc1cc(C(=O)NCc2ccccc2C(F)(F)F)c2[nH]ncc2c1)c1ccccc1C(F)(F)F [Example 10, N-[2-(Trifluoromethyl)benzyl]-5-({[2-(trifluoromethyl)phenyl]carbonyl}amino)-1H-indazole-7-carboxamide]
270 | Cn1cnc2c(C(=O)NC3CCCCC3)cc(NC(=O)c3ccccc3C(F)(F)F)cc21 [Example 47, N-Cyclohexyl-1-methyl-6-({[2-(trifluoromethyl)phenyl]carbonyl}amino)-1H-benzimidazole-4-carboxamide]
327 | COCc1nc2c(C(=O)NCc3ccccc3Cl)cc(NC(=O)c3ccccc3C(F)(F)F)cc2n1C [Example 91, N-(2-Chlorobenzyl)-2-(methoxymethyl)-1-methyl-6-({[2-(trifluoromethyl)phenyl]carbonyl}amino)-1H-benzimidazole-4-carboxamide]
765 | COCc1nc2c(C(=O)Nc3cccc(Cl)c3C)cc(NC(=O)c3ccc(C(F)(F)F)cc3C(F)(F)F)cc2[nH]1 [Example 111, 6-({[2,4-Bis(trifluoromethyl)phenyl]carbonyl}amino)-N-(3-chloro-2-methylphenyl)-2-(methoxymethyl)-1H-benzimidazole-4-carboxamide hydrochloride]
208 | COCc1nc2c(C(=O)Nc3cccc(Cl)c3C)cc(NC(=O)c3cc(CCC(C)(C)O)ccc3Cl)cc2[nH]1 [Example 119, 6-({[2-Chloro-5-(3-hydroxy-3-methylbutyl)phenyl]carbonyl}amino)-N-(3-chloro-2-methylphenyl)-2-(methoxymethyl)-1H-benzimidazole-4-carboxamide hydrochloride]
403 | Cc1c(Cl)cccc1NC(=O)c1cc(NC(=O)c2ccccc2C(F)(F)F)cc2[nH]c(NCC3(C)COC3)nc12 [Example 159, N-(3-Chloro-2-methylphenyl)-2-{[(3-methyloxetan-3-yl)methyl]amino}-6-({[2-(trifluoromethyl)phenyl]carbonyl}amino)-1H-benzimidazole-4-carboxamide hydrochloride]
204 | COCc1nc2c(C(=O)Nc3cccnc3)cc(NC(=O)c3ccccc3C(F)(F)F)cc2[nH]1 [Example 216, 2-(Methoxymethyl)-N-(pyridin-3-yl)-6-({[2-(trifluoromethyl)phenyl]carbonyl}amino)-1H-benzimidazole-4-carboxamide hydrochloride]
8.6 | COCc1nc2c(C(=O)Nc3ccsc3)cc(NC(=O)c3ccccc3C(F)(F)F)cc2[nH]1 [Example 220, 2-(Methoxymethyl)-N-(thiophen-3-yl)-6-({[2-(trifluoromethyl)phenyl]carbonyl}amino)-1H-benzimidazole-4-carboxamide hydrochloride]
2.2 | COCc1nc2c(C(=O)Nc3cccc4nsnc34)cc(NC(=O)c3ccccc3C(F)(F)F)cc2[nH]1 [Example 221, N-(2,1,3-Benzothiadiazol-4-yl)-2-(methoxymethyl)-6-({[2-(trifluoromethyl)phenyl]carbonyl}amino)-1H-benzimidazole-4-carboxamide hydrochloride]
661 | COCc1nc2c(C(=O)Nc3ccc4c(c3)S(=O)(=O)C=C4)cc(NC(=O)c3ccccc3C(F)(F)F)cc2[nH]1 [Example 222, N-(1,1-Dioxide-1-benzothiophen-6-yl)-2-(methoxymethyl)-6-({[2-(trifluoromethyl)phenyl]carbonyl}amino)-1H-benzimidazole-4-carboxamide hydrochloride]
68.2 | COCc1nc2c(C(=O)NCc3cccs3)cc(NC(=O)c3ccccc3C(F)(F)F)cc2[nH]1 [Example 223, 2-(Methoxymethyl)-N-(thiophen-2-ylmethyl)-6-({[2-(trifluoromethyl)phenyl]carbonyl}amino)-1H-benzimidazole-4-carboxamide hydrochloride]
26.5 | COCc1nc2c(C(=O)Nc3ccc4[nH]ccc4c3)cc(NC(=O)c3ccccc3C(F)(F)F)cc2[nH]1 [Example 224, N-(1H-Indol-5-yl)-2-(methoxymethyl)-6-({[2-(trifluoromethyl)phenyl]carbonyl}amino)-1H-benzimidazole-4-carboxamide]
15.6 | COCc1nc2c(C(=O)Nc3nc4ccccc4s3)cc(NC(=O)c3ccccc3C(F)(F)F)cc2[nH]1 [Example 225, N-(1,3-Benzothiazol-2-yl)-2-(methoxymethyl)-6-({[2-(trifluoromethyl)phenyl]carbonyl}amino)-1H-benzimidazole-4-carboxamide hydrochloride]
26.9 | COCc1nc2c(C(=O)NCC(C)(C)C)cc(NC(=O)c3ccccc3C(F)(F)F)cc2[nH]1 [Example 226, N-(2,2-Dimethylpropyl)-2-(methoxymethyl)-6-({[2-(trifluoromethyl)phenyl]carbonyl}amino)-1H-benzimidazole-4-carboxamide hydrochloride]
0.1 | COCc1nc2c(C(=O)Nc3cccs3)cc(NC(=O)c3ccccc3C(F)(F)F)cc2[nH]1 [Example 227, 2-(Methoxymethyl)-N-(thiophen-2-yl)-6-({[2-(trifluoromethyl)phenyl]carbonyl}amino)-1H-benzimidazole-4-carboxamide hydrochloride]
1.7 | COCc1nc2c(C(=O)Nc3nc4cc(Cl)ccc4o3)cc(NC(=O)c3ccccc3C(F)(F)F)cc2[nH]1 [Example 228, N-(5-Chloro-1,3-benzoxazol-2-yl)-2-(methoxymethyl)-6-({[2-(trifluoromethyl)phenyl]carbonyl}amino)-1H-benzimidazole-4-carboxamide hydrochloride]
201 | COCc1nc2c(C(=O)Nc3cccc(Cl)c3C)cc(NC(=O)c3cc(OCC(F)F)ccc3Cl)cc2[nH]1 [Example 248, 6-({[2-Chloro-5-(2,2-difluoroethoxy)phenyl]carbonyl}amino)-N-(3-chloro-2-methylphenyl)-2-(methoxymethyl)-1H-benzimidazole-4-carboxamide hydrochloride]

Structure (SMILES) | IC50 [nM]
COCc1nc2c(C(=O)Nc3cccc(Cl)c3C)cc(NC(=O)c3cc(C#CCOC(C)(C)C)ccc3Cl)cc2[nH]1 [Example 117, 6-({[5-(3-tert-Butoxy-1-propynyl)-2-chlorophenyl]carbonyl}amino)-N-(3-chloro-2-methylphenyl)-2-(methoxymethyl)-1H-benz imidazole-4-carboxamide hydrochloride] | 584
